Measured values taken from patent EP4737445A1, “NOVEL SATURATED HETEROCYCLE-SUBSTITUTED HETEROARYL-CARBONOHYDRAZONOYL DICYANIDE COMPOUND AND USE THEREOF” (Korea Institute of Science and Technology, priority 2023, dated 2025).

Tests used:
Format in all cases: in vivo
[1] = Pharmacokinetic study in rats (IV and PO, plasma); settings: Sprague-Dawley, rat, SD rats
Procedure: The pharmacokinetics of the compounds prepared according to Examples 1 to 46 were studied using experimental animal models. Specifically, 7- to 8-week-old SD rats (Koatech, Hana Sangsa Co., Ltd.) weighing approximately 250 to 300 g were purchased and maintained in a small animal simple breeding room set at a temperature of 22 ± 2°C, relative humidity of 50 ± 5%, lighting time of 12 hours (lights on at 8 AM and lights off at 8 PM), and illumination of 150 to 300 lux. Throughout the entire test period, feed was provided ad libitum, RO water was provided ad libitum, and fasting was performed for 16 hours before oral administration of the drug. After preparing the drugs under the conditions shown in Table 7 below, the drugs were administered by intravenous injection (IV) or oral administration (PO). Collected blood at 500 µL was collected in tubes containing heparin sodium and centrifuged at 8000 rpm at 2 to 8°C for 6 minutes to obtain plasma from the blood. 20 µL of the obtained plasma was taken, added to 180 µL of acetonitrile containing an internal standard, vortexed, and centrifuged at 15,000 rpm at 4°C for 5 minutes, and the obtained supernatant was analyzed by LC-MS/MS. The HPLC and MS conditions used for analysis are shown in Tables 8 and 9 below, respectively.
Specific PK parameters were calculated using Phoenix WinNonlin 6.4 version (Pharsight, USA) program and a non-compartmental analysis model, and the results are summarized in Table 11 below.

TauP301L-BiFC Tg mice = assay: Balance beam test in tau transgenic mice; settings: oral 10 mg/kg, 5 times per week, 19 weeks, vehicle = 1.5
Procedure: Compounds 6, 16, and 20 were orally administered to 8.2-month-old tau transgenic animal model (TauP301L-BiFC tg mouse) 5 times per week at a concentration of 10 mg/kg for a total of 19 weeks (n=10/group). WT mice of similar age to the vehicle-treated group of TauP301L-BiFC mice were used as a control group. Three types of behavioral experiments (Novel Objective Recognition test, Y-maze test, Balance beam test) were performed to confirm the improvement effects on cognitive function and motor function by drug administration, and these experiments and their results were as follows. • (1) Novel Objective Recognition test: To evaluate the object recognition memory ability of mice, two identical objects (Old-Old) were explored for 10 minutes in a 40 cm × 40 cm box. The next day, one object was replaced with a new object (Old-New) and exploration was performed again for 10 minutes, and then the time showing exploratory behavior toward the existing object and the new object was measured. Mice with normal object recognition ability (Recognition index) spent more time exploring the newly changed object, whereas mice with low object recognition ability could not distinguish the new object. The object recognition ability (Recognition index) values were as follows: (RI, Vehicle= 0.48, n.s., #20= 0.59, p<0.05, #6= 0.66, p<0.0001, #16= 0.58, p<0.05). In TauP301L-BiFC mice, the object recognition function improvement effect by drugs #20, #6, and #16 compared to the vehicle group was confirmed. • (2) Y-maze test: A Y-maze test was performed to evaluate the spatial working memory ability of mice. Whether the mice entered the three arms of the Y-maze by spontaneous alternation behavior for a certain period of time was measured through video recording. An increase in the spontaneous alternation ratio was considered as improved working memory ability. […] The time taken to cross a rod with a height of 50 cm and length of 80 cm and the number of times the feet went outside the rod during crossing were measured. […]

tau = target: T1, tau (Homo sapiens, UniProt P10636, P618L); assay: Tau phosphorylation immunoblot of RIPA-soluble brain lysates; settings: TauP301L-BiFC mice, oral 10 mg/kg, 19 weeks, vehicle = 100%
T1 construct: BiFC fluorescent-protein fragments (two complementary halves); from tissue; host or cells: brain of TauP301L-BiFC transgenic mice
Procedure: [2] To verify the tau pathology inhibitory efficacy of the drug confirmed through brain tissue imaging via brain lysate immunoblot, brain lysates were separated and purified, and immunoblot using tau antibody was performed in soluble and insoluble fractions. The brain was weighed, and RIPA lysis buffer containing the corresponding dose of protease and phosphatase inhibitors was added to the brain tissue. The tissue was then disrupted using a homogenizer and incubated at 4°C for 2 hours, and then centrifuged at 13,200 rpm at 4°C for 20 minutes. After centrifugation, the supernatant was collected as a RIPA-soluble fraction and stored at -80°C. To prepare the RIPA-insoluble fraction, the remaining pellet was washed once with RIPA lysis buffer containing 1 M sucrose, and then 2% SDS solution (1 mL per 1 g of tissue) was added and incubated at room temperature for 1 hour. Thereafter, the mixture was centrifuged at 13,200 rpm for 1 minute at room temperature, and the supernatant was collected as a RIPA-insoluble fraction and stored at -80°C.
For tau immunoblot analysis, 20 µg of brain tissue RIPA-soluble sample was separated on a 10% SDS-PAGE gel and transferred to a PVDF membrane, and RIPA-insoluble samples were diluted 10-fold in 2% SDS solution and 20 µL of each sample was loaded on an SDS-PAGE gel. The total tau and phosphorylated tau levels were detected by Tau5, which is an anti-tau antibody, and pS199 and pS396, which are anti-phosphorylated tau antibodies. ImageJ software (NIH) was used to quantify band intensity.

T1 sequence (P10636 1-441 isoform P10636-8 P301L): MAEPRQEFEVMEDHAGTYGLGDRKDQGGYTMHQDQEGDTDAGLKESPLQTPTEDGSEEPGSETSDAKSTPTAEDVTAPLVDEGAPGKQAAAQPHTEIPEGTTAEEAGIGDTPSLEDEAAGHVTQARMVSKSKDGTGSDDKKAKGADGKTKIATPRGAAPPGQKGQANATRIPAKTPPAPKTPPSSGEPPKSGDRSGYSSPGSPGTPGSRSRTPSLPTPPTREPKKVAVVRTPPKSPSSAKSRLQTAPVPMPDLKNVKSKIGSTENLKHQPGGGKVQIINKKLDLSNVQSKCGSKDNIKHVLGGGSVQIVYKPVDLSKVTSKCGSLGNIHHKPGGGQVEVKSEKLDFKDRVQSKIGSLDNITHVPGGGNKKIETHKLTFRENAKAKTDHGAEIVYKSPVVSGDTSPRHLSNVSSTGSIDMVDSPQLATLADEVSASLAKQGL

In the case of `Cn1c(N2CCOCC2)nc2cc(NN=C(C#N)C#N)ccc21` [Compound 6, (1-methyl-2-morpholino-1H-benzo[d]imidazol-5-yl)carbonohydrazonoyl dicyanide], the bioavailability ([1]; IV 2 mg/kg, PO 10 mg/kg) is reported as 42%, the AUC ([1]; IV, 2 mg/kg) is reported as 1700 ng·h/mL and the Cmax ([1]; IV, 2 mg/kg) is reported as 9870 ng/mL. The clearance ([1]; IV, 2 mg/kg) was 19.5 mL/min/kg, the half-life ([1]; IV, 2 mg/kg) was 34.8 min and the AUC ([1]; PO, 10 mg/kg) was 3570 ng·h/mL. For the same molecule, the Cmax ([1]; PO, 10 mg/kg) was 4880 ng/mL, the Tmax ([1]; PO, 10 mg/kg) was 15 min and the half-life ([1]; PO, 10 mg/kg) was 53.4 min. The “Average number of times feet went outside the rod (n)” value (“Average number” below) (TauP301L-BiFC Tg mice) was 1.1, the “pS199 tau phosphorylation immunoblot” value (tau) was 48% and the “pS396 tau phosphorylation immunoblot” value (tau) was 60%.

Molecule `CC1COCCN1c1nc2ccc(NN=C(C#N)C#N)cc2o1` (centres unmarked) [Compound 16, (2-(3-methylmorpholino)benzo[d]oxazol-6-yl)carbonohydrazonoyl dicyanide] has a bioavailability ([1]; IV 2 mg/kg, PO 10 mg/kg) of 114%, an AUC ([1]; IV, 2 mg/kg) of 4090 ng·h/mL and a Cmax ([1]; IV, 2 mg/kg) of 4090 ng/mL. The clearance ([1]; IV, 2 mg/kg) was 8.33 mL/min/kg, the half-life ([1]; IV, 2 mg/kg) was 30.6 min and the AUC ([1]; PO, 10 mg/kg) was 23300 ng·h/mL. For the same molecule, the Cmax ([1]; PO, 10 mg/kg) was 11100 ng/mL, the Tmax ([1]; PO, 10 mg/kg) was 40.2 min and the half-life ([1]; PO, 10 mg/kg) was 112 min. For the same molecule, the “Average number” value (TauP301L-BiFC Tg mice) was 0.8, the “pS199 tau phosphorylation immunoblot” value (tau) was 24% and the “pS396 tau phosphorylation immunoblot” value (tau) was 40%.

`N#CC(C#N)=NNc1ccc2nc(N3C4CCC3COC4)oc2c1` [Compound 20, (2-(3-oxa-8-azabicyclo[3.2.1]octan-8-yl)benzo[d]oxazol-6-yl)carbonohydrazonoyl dicyanide] showed a bioavailability ([1]; IV 1 mg/kg, PO 15 mg/kg) of 114%, an AUC ([1]; IV, 1 mg/kg) of 130 ng·h/mL and a clearance ([1]; IV, 1 mg/kg) of 132 mL/min/kg. The half-life ([1]; IV, 1 mg/kg) was 12 min, the AUC ([1]; PO, 15 mg/kg) was 2210 ng·h/mL and the Cmax ([1]; PO, 15 mg/kg) was 2050 ng/mL. For the same molecule, the Tmax ([1]; PO, 15 mg/kg) was 24 min, the half-life ([1]; PO, 15 mg/kg) was 96 min and the “Average number” value (TauP301L-BiFC Tg mice) was 0.7. For the same molecule, the “pS199 tau phosphorylation immunoblot” value (tau) was 60% and the “pS396 tau phosphorylation immunoblot” value (tau) was 71%.
